Experimental data as given in US12534729B2, “Uses of synthetic lethal partners for treatment of cancer” (Sanford Burnham Prebys Medical Discovery Institute, priority 2019, dated 2026).

Tests used:
[1] = test system: A375 and UACC-903 melanoma cells; assay: Cell proliferation (cell count) of melanoma lines; assay type: cell-based, human; conditions: PLX-4032 250 nM; for cell proliferation in combination with ASNS knockdown (si-ASNS): melanoma cells, ISRIB 200 nM
Description: siRNA Transfection: 1×10^5 cells were seeded overnight (O/N) per well in 6-well plates. Negative control (NT-siRNA) or si-RNA targeting the transcript of interest was transfected utilizing jetPRIME® transfection reagent, as per manufacturer's instructions (Polyplus, NY, USA). Following siRNAs were used: si-ASNS #1 (SASI_Hs02_00332309), si-ASNS #2 (SASI_Hs01_00116721), si-ASNS #3 (SASI_Hs01_00116722), si-ATF4 (SASI_Hs02_00332313), si-eIF4E (SASI_Hs01_00216117), si-BRAF (SASI_Hs01_00107705), si-GCN2 (SASI_Hs01_00097888), si-MNK #1 (SASI_Hs01_00228422), si-MNK1 #2 (SASI_Hs01_00228423), si-MNK1 #3 (SASI_Hs01_00228424), and the negative control si-RNA (NT-siRNA; SIC001) were purchased from Sigma-Aldrich.
Cell Proliferation: For cell proliferation, 0.3-0.5×10^5 cells were seeded O/N in triplicate in 6-well plate. Following treatment for the specified duration, cells were trypsinized and the cell count was determined with Neubauer hemocytometer (Celeromics, Cambridge, UK).

ATF4 = assay: Immunoblotting/qRT-PCR of ATF4 induction (GCN2-ATF4 axis) after ASNS knockdown; assay type: cell-based, human; conditions: for ATF4 induction following ASNS knockdown (immunoblot): melanoma cells, 72 hr, ISRIB 200 nM, eFT508 100 nM, sunitinib 500 nM
Description: (§1) Immunoblotting: Total protein was extracted in Laemmli buffer, fractionated by SDS polyacrylamide gels and transferred to PVDF membranes (Millipore Sigma, MA, USA). After blocking with 5% non-fat dry milk (BD Biosciences, CA, USA), the membranes were incubated with primary antibodies overnight at 4° C. Afterwards, 2 hr incubation with HRP-conjugated secondary antibodies was performed. Following chemiluminescence reaction, the protein signal was visualized using the ChemiDoc imaging system (Bio-Rad, Hercules, CA) according to the manufacturer's instructions.
qPCR Analysis: 1×10^5 cells were seeded O/N per well in 6-well plates. Following treatment for 48 hr, total RNA was extracted using RNeasy Mini Kit (Qiagen, Hilden, Germany). cDNA was synthesized using oligo(dT) and random primers (AB Bioscience, MA, USA), and qPCR analysis was performed with SYBR Green (Roche, NJ, USA). Primers were designed using the PrimerQuest tool (Integrated DNA Technologies, CA, USA) and Primer Bank Actin was used as an internal control.

[2] = test system: KRASLSLG12D/+; p53R172H/+; PDXCretg/+ (KPC/B6) pancreatic tumors; assay type: in vivo; conditions: same regimen
Description: (§2) In Vivo Studies: All animal studies were conducted in the SBP Medical Discovery Institute Animal Facility in accordance with the Institutional Animal Care and Use Committee guidelines. 8-week-old males C57BL/6 mice were purchased from Jackson laboratories (Bar Harbor, ME) and allowed to acclimatize for 1 week. KRAS^LSLG12D/+. p53^R172H/+; PDX^Cretg/+ (KPC/B6) pancreatic cancer cells (1×10^6, suspended in 30 μl sterile PBS) were orthotopically injected into head of the pancreas. After one week, mice were randomized and sorted into treatment groups (n=8 animal/group). L-A′ase (60 IU/animal) was administered daily for five times a week for 3 weeks intraperitoneally. MEK inhibitor PD-325901 (4 mg/kg) in 0.5% (w/v) hydroxy-propyl-methylcellulose, 0.2% (v/v) Tween 80 (Sigma) was administered by oral gavage twice a week for 3 weeks. For in vivo melanoma study, 8-week-old male C57BL/6 mice were injected subcutaneously in the flank with 2×10^5 MaNRAS1 (1007) cells. When tumors reached ˜250 mm^3, mice were randomized and sorted into treatment groups (n=8 animal/group).
(§3) Mice were maintained in a pathogen-free environment with free access to food. Tumor volume was measured blinded twice a week. Tumor volume was measured with linear calipers and calculated using the formula: ([length in millimeters x (width in millimeters)2]/2). […]

[3] = test system: MaNRAS1 (1007) mouse melanoma cells; assay: Subcutaneous MaNRAS1 (1007) NRAS mutant melanoma model; assay type: in vivo, C57BL/6 mice; conditions: L-A′ase and PD-325901 dosed as in pancreatic study
Description: as §2, §3

ATF4 mRNA in A375 cells = assay: Polysome profiling of ATF4 mRNA translation; assay type: cell-based, human; conditions: si-ASNS plus PLX-4032 500 nM, 48 hr
Description: Polysome Profiling: Polysome profiling was performed as described previously (Gandin et al., 2014). A375 cells were seeded at 30% confluency in a 15-cm Petri dish and transfected with NT-siRNA, si-ASNS, si-MNK1 (#1), or si-ASNS+si-MNK1 for 16 hr, using JetPrime transfection reagent (Polyplus) as per manufacturer's instruction. Post-transfection, cells were replenished with fresh media containing vehicle (DMSO) or 500 nM PLX-4032 (Selleckchem) for 48 hr treatment. […] Optical density values at 260 nm (OD260) were measured in each lysate and OD260 of ˜5 were then loaded in 5-50% sucrose gradients generated using Gradient Master (Biocomp, Fredericton, NB). […] Sucrose gradients were subjected to ultracentrifugation (SW41 Ti 11E1698 rotor; Beckman 39,000 RPM for 2 hr at 4° C.) and fractionated by displacement using 60% sucrose/0.01% bromophenol blue, on ISCO Foxy fraction collector (35 sec for each fraction ˜750 μL per fraction) equipped with an ultraviolet lamp for continuous absorbance monitoring at 254 nm. […] Relative change in the transcript levels in different pools was determined by the 2-ΔΔCT method, and shown as fold-change relative to mock-treated cells. β-Actin was used as an internal control.

ERK1/2 = assay: Immunoblotting of phosphorylated MEK1/2 and ERK1/2 (MAPK signaling); assay type: cell-based, human; conditions: melanoma cells, 72 hr; gefitinib 1 μM, sunitinib 500 nM
Description: as §1

## O=C(COc1ccc(Cl)cc1)NC1CCC(NC(=O)COc2ccc(Cl)cc2)CC1 (stereo not shown) [ISRIB]
[1]
  cell proliferation in combination with ASNS knockdown (si-ASNS): potentiated anti-proliferative effects of ASNS depletion in melanoma cells
ATF4
  ATF4 induction following ASNS knockdown (immunoblot): suppression of ATF4 induction

## O=C(NOC[C@H](O)CO)c1ccc(F)c(F)c1Nc1ccc(I)cc1F [PD-325901]
[2]
  apoptosis (cleaved caspase-3): did not result in a significant increase in apoptosis
[3]
  tumor growth (volume): only modest anti-tumor activity

## CCCS(=O)(=O)Nc1ccc(F)c(C(=O)c2c[nH]c3ncc(-c4ccc(Cl)cc4)cc23)c1F [PLX-4032]
[1]; BRAF mutant melanoma lines
  melanoma cell proliferation, drug alone: attenuated melanoma cell proliferation
[1]
  cell proliferation in combination with ASNS knockdown (si-ASNS): a more effective inhibition was seen upon its combination with ASNS knockdown
ATF4 mRNA in A375 cells
  translational efficiency of ATF4 mRNA (polysome distribution): attenuated increase in translational efficiency of ATF4 mRNA caused by ASNS depletion

## Cc1cc(Nc2cc(N)ncn2)c(=O)n2c1C(=O)NC21CCCCC1 [eFT508]
ATF4
  ATF4 induction following ASNS knockdown (immunoblot): did not antagonize ATF4 induction in response to ASNS suppression

## COc1cc2ncnc(Nc3ccc(F)c(Cl)c3)c2cc1OCCCN1CCOCC1 [gefitinib]
ERK1/2
  MEK1/2 and ERK1/2 phosphorylation under ASNS knockdown: did not alter ERK1/2 activation under ASNS knockdown conditions

## CCC(=O)N1CCN(c2ccc(-n3c(=O)ccc4cnc5ccc(-c6cnc7ccccc7c6)cc5c43)cc2C(F)(F)F)CC1 [torin 1]
ATF4; melanoma and pancreatic cancer cell lines, rapamycin 100 nM, Torin 1 100 nM
  ATF4 induction and upregulation of ATF4 targets following ASNS knockdown: blocked both ATF4 induction and upregulation of ATF4 targets seen following ASNS knockdown
